Read-outs that look alike come from different tables or passages of the source. Where a SMILES comes first, the peptide text is derived from it. [ ]: non-standard residue; d: D form. Tle = CC(C)(C)[C@H](N)C(=O)O; dDab = NCC[C@@H](N)C(=O)O; Dab = NCC[C@H](N)C(=O)O; Dap = NC[C@H](N)C(=O)O
What was measured:
[1] = system: Acinetobacter baumannii DSM 30008; assay type: cell-based
Summary of the method: (§1)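 Peptide activity was tested by NCCLS broth microdilution with slight modifications. Bacteria were diluted in cation-adjusted Mueller-Hinton II broth to approximately 10^6 CFU/mL against a 0.5 McFarland standard. They were then exposed to two-fold serial peptide dilutions in broth containing 0.002% final polysorbate 80.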

[2] = system: Escherichia coli ATCC 25922; assay type: cell-based
Summary of the method: as §1

[3] = system: Klebsiella pneumoniae ATCC 13883; assay type: cell-based
Summary of the method: as §1

[4] = system: human red blood cells (hRBC); assay: Hemolysis: hemolytic activity at 100 μg/mL, 1 h at 37° C.
Summary of the method: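 Peptides at 100 μg/mL incubated with washed 20% (v/v) human erythrocytes (~0.9×10^9 cells/mL) for 1 h at 37 °C with shaking. Released hemoglobin read at OD 540 nm in supernatant; 0% and 100% lysis from PBS/0.001% acetic acid and 2.5% Triton X-100.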

[5] = Mueller-Hinton II broth, 18-20 hours at 35° C.

Structure (SMILES)	Acinetobacter baumannii DSM 30008 MIC ([1]; DSM 30008) [µg/mL]	Escherichia coli ATCC 25922 MIC ([2]; ATCC 25922) [µg/mL]	Klebsiella pneumoniae ATCC 13883 MIC ([3]; ATCC 13883) [µg/mL]	Hemolysis at 100 μg/mL ([4]; red cells of human, 1 h, 100) [%]	Acinetobacter baumannii DSM 30008 MIC [1, 5] [µg/mL]	Escherichia coli ATCC 25922 MIC [2, 5] [µg/mL]	Klebsiella pneumoniae ATCC 13883 MIC [3, 5] [µg/mL]	Hemolysis at 100 μg/mL ([4]; 100 μg/mL, 20% hRBC, 1 h at 37° C.) [%]
CC(C)C[C@@H]1NC(=O)[C@H](CCCNC(=N)N)NC(=O)[C@@H](CCN)NC(=O)[C@H](C(C)C)NC(=O)[C@@H]2CSSC[C@H](NC1=O)C(=O)N[C@@H](C(C)C)C(=O)N[C@@H]([C@@H](C)O)C(=O)N[C@@H](CCCN)C(=O)N[C@H](CCN)C(=O)N[C@@H](CCN)C(=O)N[C@@H](Cc1c[nH]c3ccccc13)C(=O)N[C@@H]([C@@H](C)O)C(=O)N[C@@H](Cc1ccc(O)cc1)C(=O)N2 [Example 25, cyclo(-Leu-Cys-Val-Thr-Orn-^DDab-Dab-Trp-Thr-Tyr-Cys-Val-^DDab-Arg-)] (HELM PEPTIDE1{C.V.T.[Orn].[NCC[C@@H](N[*:1])C(=O)[*:2]].[Dab].W.T.Y.C.V.[NCC[C@@H](N[*:1])C(=O)[*:2]].R.L}$PEPTIDE1,PEPTIDE1,1:R3-10:R3|PEPTIDE1,PEPTIDE1,1:R1-14:R2$$$V2.0)	0.25	1	1	3	–	–	–	–
CC[C@H](C)[C@@H]1NC(=O)[C@H](Cc2ccc(O)cc2)NC(=O)[C@@H](C)NC(=O)[C@H](CO)NC(=O)[C@@H]2CSSC[C@H](NC1=O)C(=O)N[C@@H](Cc1ccc(O)cc1)C(=O)N[C@@H](CCN)C(=O)N[C@@H](CCCN)C(=O)N[C@H](CCN)C(=O)N[C@@H](CCN)C(=O)N[C@@H](Cc1c[nH]c3ccccc13)C(=O)N[C@@H](CCN)C(=O)N[C@@H](C(C)(C)C)C(=O)N2 [Example 16, cyclo(-Ile-Cys-Tyr-Dab-Orn-^DDab-Dab-Trp-Dab-tBuGly-Cys-Ser-^DAla-Tyr-)] (HELM PEPTIDE1{C.S.[dA].Y.I.C.Y.[Dab].[Orn].[NCC[C@@H](N[*:1])C(=O)[*:2]].[Dab].W.[Dab].[CC(C)(C)[C@H](N[*:1])C(=O)[*:2]]}$PEPTIDE1,PEPTIDE1,1:R3-6:R3|PEPTIDE1,PEPTIDE1,1:R1-14:R2$$$V2.0)	1	0.5	0.5	1	–	–	–	–
CC(C)C[C@@H]1NC(=O)[C@H](CCCNC(=N)N)NC(=O)[C@@H](CCN)NC(=O)[C@H](C(C)C)NC(=O)[C@@H]2CSSC[C@H](NC1=O)C(=O)N[C@@H](C(C)C)C(=O)N[C@@H](CC(N)=O)C(=O)N[C@@H](CCCN)C(=O)N[C@H](CCN)C(=O)N[C@@H](CCN)C(=O)N[C@@H](Cc1c[nH]c3ccccc13)C(=O)N[C@@H](CO)C(=O)N[C@@H](Cc1ccc(O)cc1)C(=O)N2 [Example 18, cyclo(-Leu-Cys-Val-Asn-Orn-^DDab-Dab-Trp-Ser-Tyr-Cys-Val-^DDab-Arg-)] (HELM PEPTIDE1{C.V.N.[Orn].[NCC[C@@H](N[*:1])C(=O)[*:2]].[Dab].W.S.Y.C.V.[NCC[C@@H](N[*:1])C(=O)[*:2]].R.L}$PEPTIDE1,PEPTIDE1,1:R3-10:R3|PEPTIDE1,PEPTIDE1,1:R1-14:R2$$$V2.0)	0.25	0.5	0.5	8	–	–	–	–
CC(C)C[C@@H]1NC(=O)[C@H](CCCNC(=N)N)NC(=O)[C@H]2CCCN2C(=O)[C@H](C(C)C)NC(=O)[C@@H]2CSSC[C@H](NC1=O)C(=O)N[C@@H](Cc1ccc(O)cc1)C(=O)N[C@@H](C)C(=O)N[C@@H](CCN)C(=O)N[C@@H](CCN)C(=O)N[C@@H](CCN)C(=O)N[C@@H](Cc1c[nH]c3ccccc13)C(=O)N[C@@H](C)C(=O)N[C@@H](C(C)C)C(=O)N2 [Example 1, cyclo(-Leu-Cys-Tyr-Ala-Dab-Dab-Dab-Trp-Ala-Val-Cys-Val-^DPro-Arg-)] (HELM PEPTIDE1{A.[Dab].[Dab].[Dab].W.A.V.C.V.[dP].R.L.C.Y}$PEPTIDE1,PEPTIDE1,8:R3-13:R3|PEPTIDE1,PEPTIDE1,1:R1-14:R2$$$V2.0)	–	–	–	–	0.75	2	1	5
CC(C)C[C@@H]1NC(=O)[C@H](CCCNC(=N)N)NC(=O)[C@@H](CCN)NC(=O)[C@H](C(C)C)NC(=O)[C@@H]2CSSC[C@H](NC1=O)C(=O)N[C@@H](Cc1ccc(O)cc1)C(=O)N[C@@H](CCC(N)=O)C(=O)N[C@@H](CCCN)C(=O)N[C@H](CCN)C(=O)N[C@@H](CCN)C(=O)N[C@@H](Cc1c[nH]c3ccccc13)C(=O)N[C@@H](CO)C(=O)N[C@@H](Cc1ccc(O)cc1)C(=O)N2 [Example 62, cyclo(-Leu-Cys-Tyr-Gln-Orn-^DDab-Dab-Trp-Ser-Tyr-Cys-Val-^DDab-Arg-)] (HELM PEPTIDE1{C.V.[NCC[C@@H](N[*:1])C(=O)[*:2]].R.L.C.Y.Q.[Orn].[NCC[C@@H](N[*:1])C(=O)[*:2]].[Dab].W.S.Y}$PEPTIDE1,PEPTIDE1,1:R3-6:R3|PEPTIDE1,PEPTIDE1,1:R1-14:R2$$$V2.0)	0.625	0.375	1	2	–	–	–	–
CC(C)[C@@H]1NC(=O)[C@@H]2CCCN2C(=O)[C@@H](C)NC(=O)[C@H]([C@@H](C)O)NC(=O)[C@H](CO)NC(=O)[C@H](C(C)(C)C)NC(=O)[C@H](CCN)NC(=O)[C@H](Cc2c[nH]c3ccccc23)NC(=O)[C@H](CCN)NC(=O)[C@@H](CCN)NC(=O)[C@H](CN)NC(=O)[C@H](CCN)NC(=O)[C@H](Cc2ccc(O)cc2)NC(=O)[C@H](CN)NC1=O [Example 45, cyclo(-Val-Dap-Tyr-Dab-Dap-^DDab-Dab-Trp-Dab-tBuGly-Ser-Thr-^DAla-Pro-)] (cyclo([Dab][Dap][dDab][Dab]W[Dab][Tle]ST[dA]PV[Dap]Y))	1	0.5	0.25	4	–	–	–	–
CC(C)C[C@@H]1NC(=O)[C@H](CCCNC(=N)N)NC(=O)[C@H]2CCCN2C(=O)[C@H](C(C)C)NC(=O)[C@@H]2CSSC[C@H](NC1=O)C(=O)N[C@@H](Cc1ccc(O)cc1)C(=O)N[C@@H](C)C(=O)N[C@@H](CCN)C(=O)N[C@H](CCN)C(=O)N[C@@H](CCN)C(=O)N[C@@H](Cc1c[nH]c3ccccc13)C(=O)N[C@@H](C)C(=O)N[C@@H](C(C)C)C(=O)N2 [Example 2, cyclo(-Leu-Cys-Tyr-Ala-Dab-^DDab-Dab-Trp-Ala-Val-Cys-Val-^DPro-Arg-)] (HELM PEPTIDE1{A.[Dab].[NCC[C@@H](N[*:1])C(=O)[*:2]].[Dab].W.A.V.C.V.[dP].R.L.C.Y}$PEPTIDE1,PEPTIDE1,8:R3-13:R3|PEPTIDE1,PEPTIDE1,1:R1-14:R2$$$V2.0)	2.5	4	2	5	–	–	–	–
CC(C)C[C@@H]1NC(=O)[C@H](CCN)NC(=O)[C@@H](CCN)NC(=O)[C@H](CO)NC(=O)[C@@H]2CSSC[C@H](NC1=O)C(=O)N[C@@H](Cc1ccc(O)cc1)C(=O)N[C@@H](CC(N)=O)C(=O)N[C@@H](CCCN)C(=O)N[C@H](CCN)C(=O)N[C@@H](CCN)C(=O)N[C@@H](Cc1c[nH]c3ccccc13)C(=O)N[C@@H](CO)C(=O)N[C@@H](Cc1ccc(O)cc1)C(=O)N2 [Example 8, cyclo(-Leu-Cys-Tyr-Asn-Orn-^DDab-Dab-Trp-Ser-Tyr-Cys-Ser-^DDab-Dab-)] (HELM PEPTIDE1{C.S.[NCC[C@@H](N[*:1])C(=O)[*:2]].[Dab].L.C.Y.N.[Orn].[NCC[C@@H](N[*:1])C(=O)[*:2]].[Dab].W.S.Y}$PEPTIDE1,PEPTIDE1,1:R3-6:R3|PEPTIDE1,PEPTIDE1,1:R1-14:R2$$$V2.0)	1.5	1	0.5	1	–	–	–	–
